# Measurements: ChEMBL document CHEMBL3132769, “Fragment growing to retain or alter the selectivity of anchored kinase hinge-binding fragments” (Medchemcomm, 2014)
# What was measured:
# [1] = biological target: Protein kinase C beta type (Homo sapiens) (UniProt P05771); test: Inhibition of human truncated PKC beta1 expressed in baculovirus assessed as substrate phosphorylation using fluorescence-labelled peptides as substrate at 0.06 uM after 90 mins by microfluidic peptide phosphorylation assay
# [2] = biological target: T1, Interleukin-1 receptor-associated kinase 4 (Homo sapiens) (UniProt Q9NWZ3); test: Inhibition of human IRAK4 catalytic domain expressed in baculovirus assessed as substrate phosphorylation using fluorescence-labelled peptides as substrate at 420 uM after 90 mins by microfluidic peptide phosphorylation assay
# T1 sequence (whole entry): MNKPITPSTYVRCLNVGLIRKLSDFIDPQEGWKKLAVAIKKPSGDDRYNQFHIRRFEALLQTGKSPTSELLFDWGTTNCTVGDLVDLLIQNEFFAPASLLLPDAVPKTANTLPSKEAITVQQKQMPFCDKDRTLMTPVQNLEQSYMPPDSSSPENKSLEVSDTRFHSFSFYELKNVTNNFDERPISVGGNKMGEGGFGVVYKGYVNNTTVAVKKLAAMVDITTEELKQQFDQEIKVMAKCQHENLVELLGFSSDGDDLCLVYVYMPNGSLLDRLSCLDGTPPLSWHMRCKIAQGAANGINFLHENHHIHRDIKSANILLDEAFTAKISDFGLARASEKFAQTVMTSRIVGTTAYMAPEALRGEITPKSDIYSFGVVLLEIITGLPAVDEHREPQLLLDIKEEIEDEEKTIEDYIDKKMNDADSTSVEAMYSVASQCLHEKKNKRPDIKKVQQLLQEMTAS
# [3] = system: Tyrosine-protein kinase ABL1 (Homo sapiens), P00519 [Q252H]; test: Inhibition of human truncated ABL Q252H mutant expressed in baculovirus assessed as substrate phosphorylation using fluorescence-labelled peptides as substrate at 0.2 uM after 90 mins by microfluidic peptide phosphorylation assay
# [4] = biological target: T2, Mitogen-activated protein kinase 12 (Homo sapiens) (UniProt P53778); test: Inhibition of human full length p38 gamma expressed in Escherichia coli cell assessed as substrate phosphorylation using fluorescence-labelled peptides as substrate at […] after 90 mins by microfluidic peptide phosphorylation assay
# T2 sequence (whole entry): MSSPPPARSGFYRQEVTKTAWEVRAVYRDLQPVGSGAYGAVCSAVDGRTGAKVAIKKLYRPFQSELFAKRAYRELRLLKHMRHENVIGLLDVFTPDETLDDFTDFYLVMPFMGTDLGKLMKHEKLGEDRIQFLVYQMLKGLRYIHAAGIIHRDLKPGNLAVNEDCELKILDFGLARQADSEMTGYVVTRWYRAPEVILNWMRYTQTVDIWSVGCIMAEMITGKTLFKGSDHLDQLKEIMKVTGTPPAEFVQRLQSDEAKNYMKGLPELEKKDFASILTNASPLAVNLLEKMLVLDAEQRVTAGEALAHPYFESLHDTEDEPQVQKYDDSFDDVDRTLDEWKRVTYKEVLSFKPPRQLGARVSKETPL
# [5] = biological target: Serine/threonine-protein kinase pim-1 (Homo sapiens) (UniProt P11309); test: Inhibition of human full length PIM1 expressed in baculovirus assessed as substrate phosphorylation using fluorescence-labelled peptides as substrate at […] after 90 mins by microfluidic peptide phosphorylation assay
# [6] = biological target: T3, Serine/threonine-protein kinase Sgk3 (Homo sapiens) (UniProt Q96BR1); settings: 0.1 uM
# T3 sequence (whole entry): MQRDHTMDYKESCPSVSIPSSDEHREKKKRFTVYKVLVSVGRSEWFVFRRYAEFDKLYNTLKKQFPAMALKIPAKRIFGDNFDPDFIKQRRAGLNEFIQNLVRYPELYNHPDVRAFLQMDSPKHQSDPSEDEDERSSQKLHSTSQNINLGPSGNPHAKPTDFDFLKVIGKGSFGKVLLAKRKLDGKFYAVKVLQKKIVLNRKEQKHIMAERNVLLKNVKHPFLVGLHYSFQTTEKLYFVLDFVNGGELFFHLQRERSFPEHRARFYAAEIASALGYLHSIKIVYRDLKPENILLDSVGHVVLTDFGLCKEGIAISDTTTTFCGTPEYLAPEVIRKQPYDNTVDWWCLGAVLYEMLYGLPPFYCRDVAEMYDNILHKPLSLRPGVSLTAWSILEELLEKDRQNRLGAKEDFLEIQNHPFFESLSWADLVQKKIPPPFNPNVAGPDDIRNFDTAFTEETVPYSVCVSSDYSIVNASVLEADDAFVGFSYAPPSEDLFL
# Description: Inhibition of human full length SGK3 expressed in baculovirus assessed as substrate phosphorylation using fluorescence-labelled peptides as substrate at 0.1 uM after 90 mins by microfluidic peptide phosphorylation assay
# [7] = biological target: T4, Serine/threonine-protein kinase Sgk1 (Homo sapiens) (UniProt O00141); test: Inhibition of human truncated SGK1 expressed in baculovirus assessed as substrate phosphorylation using fluorescence-labelled peptides as substrate at 70 uM after 90 mins by microfluidic peptide phosphorylation assay
# T4 sequence (whole entry): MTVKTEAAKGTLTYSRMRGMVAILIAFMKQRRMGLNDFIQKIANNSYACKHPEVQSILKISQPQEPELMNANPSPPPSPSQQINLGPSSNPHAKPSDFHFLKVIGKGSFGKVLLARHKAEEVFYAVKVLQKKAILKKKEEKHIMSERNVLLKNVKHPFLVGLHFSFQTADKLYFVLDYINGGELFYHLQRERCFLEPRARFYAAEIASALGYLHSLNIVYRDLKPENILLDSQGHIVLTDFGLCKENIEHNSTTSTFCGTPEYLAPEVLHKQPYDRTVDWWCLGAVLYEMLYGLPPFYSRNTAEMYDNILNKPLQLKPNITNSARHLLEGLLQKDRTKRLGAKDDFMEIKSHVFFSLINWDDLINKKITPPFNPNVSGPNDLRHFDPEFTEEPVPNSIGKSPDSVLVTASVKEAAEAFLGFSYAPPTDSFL
# [8] = biological target: T5, Calcium/calmodulin-dependent protein kinase type IV (Homo sapiens) (UniProt Q16566); test: Inhibition of human full length CAMK4 expressed in baculovirus assessed as substrate phosphorylation using fluorescence-labelled peptides as substrate at 95 uM after 90 mins by microfluidic peptide phosphorylation assay
# T5 sequence (whole entry): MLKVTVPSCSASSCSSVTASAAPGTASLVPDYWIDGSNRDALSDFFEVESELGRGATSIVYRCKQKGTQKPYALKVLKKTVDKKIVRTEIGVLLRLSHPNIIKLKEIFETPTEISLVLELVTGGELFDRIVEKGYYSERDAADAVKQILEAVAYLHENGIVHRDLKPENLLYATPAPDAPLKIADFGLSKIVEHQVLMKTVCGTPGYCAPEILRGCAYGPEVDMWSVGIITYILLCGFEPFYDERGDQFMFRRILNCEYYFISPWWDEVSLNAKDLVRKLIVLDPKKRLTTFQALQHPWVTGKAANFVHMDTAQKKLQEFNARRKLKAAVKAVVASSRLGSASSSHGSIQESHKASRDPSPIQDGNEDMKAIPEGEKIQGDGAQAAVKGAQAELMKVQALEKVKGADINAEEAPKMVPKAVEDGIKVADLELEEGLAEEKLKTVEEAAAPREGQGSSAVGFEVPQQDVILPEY
# [9] = biological target: Cyclin-dependent kinase 2 (Homo sapiens) (UniProt P24941); test: Inhibition of human full length CDK2 expressed in baculovirus assessed as substrate phosphorylation using fluorescence-labelled peptides as substrate at 2 uM after 90 mins by microfluidic peptide phosphorylation assay
# Protein kinase C beta type (Homo sapiens), sequence (P05771 2-671 limits assumed): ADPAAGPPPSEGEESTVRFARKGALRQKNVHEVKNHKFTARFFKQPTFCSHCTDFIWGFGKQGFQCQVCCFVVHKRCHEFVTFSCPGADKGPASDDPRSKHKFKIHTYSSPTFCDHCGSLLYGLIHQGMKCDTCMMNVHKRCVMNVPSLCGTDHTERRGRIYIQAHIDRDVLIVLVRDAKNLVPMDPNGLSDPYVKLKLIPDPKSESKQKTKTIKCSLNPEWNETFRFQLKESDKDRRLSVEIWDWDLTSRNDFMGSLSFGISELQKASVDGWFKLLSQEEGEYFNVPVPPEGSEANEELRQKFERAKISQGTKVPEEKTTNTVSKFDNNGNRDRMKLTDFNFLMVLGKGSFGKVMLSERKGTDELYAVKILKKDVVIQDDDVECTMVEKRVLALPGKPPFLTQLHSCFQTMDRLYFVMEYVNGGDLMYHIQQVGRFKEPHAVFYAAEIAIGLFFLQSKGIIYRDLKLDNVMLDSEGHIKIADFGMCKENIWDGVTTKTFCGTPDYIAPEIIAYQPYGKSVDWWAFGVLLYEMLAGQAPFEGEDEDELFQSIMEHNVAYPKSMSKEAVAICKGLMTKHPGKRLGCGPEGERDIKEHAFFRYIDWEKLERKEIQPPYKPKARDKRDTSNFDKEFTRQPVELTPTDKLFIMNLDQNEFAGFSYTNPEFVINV
# Serine/threonine-protein kinase pim-1 (Homo sapiens), sequence (P11309 whole entry, looked up): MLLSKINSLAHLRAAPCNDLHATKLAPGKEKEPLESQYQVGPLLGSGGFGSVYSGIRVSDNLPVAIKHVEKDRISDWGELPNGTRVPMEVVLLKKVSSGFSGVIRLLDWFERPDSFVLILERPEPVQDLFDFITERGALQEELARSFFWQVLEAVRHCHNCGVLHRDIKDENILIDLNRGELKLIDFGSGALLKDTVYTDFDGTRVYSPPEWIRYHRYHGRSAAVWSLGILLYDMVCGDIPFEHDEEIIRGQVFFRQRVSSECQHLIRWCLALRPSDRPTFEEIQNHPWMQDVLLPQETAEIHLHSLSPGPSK
smiles,measurement,setting,value
NC1(Cc2ccc(Cl)cc2)CCN(c2ncnc3[nH]ccc23)CC1,inhibition,[1],3.5%
c1nc(N2CCOCC2)c2nc[nH]c2n1,inhibition,[2],74.5%
Clc1ccc(C2(c3ccc(-c4ncnc5[nH]cnc45)cc3)CCNCC2)cc1,inhibition,[3],0%
COC(=O)c1cnc(Nc2cnc(C#N)cn2)cc1NCC1CCNCC1,inhibition,[4],1.5%
same,inhibition,[5],7%
C[C@H](CN(C)C)Oc1nc(Nc2cc3cccc(Cl)c3cn2)cnc1C#N,inhibition,[6],0%
CNCc1ccc(-c2ncnc3[nH]cnc23)cc1,inhibition,[7],48%
NCCc1ccc(-c2ncnc3[nH]cnc23)cc1,inhibition,[8],85%
NC1CCN(c2ncnc3[nH]ccc23)CC1,inhibition,[9],0%
